In PubChem BioAssay (NCI):
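Results reflect a 48-hour exposure of cells in 96-well plates to compound at five concentrations. GI50 = concentration required for 50% inhibition of growth. TGI marks complete inhibition of growth.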

What was measured:
Test in all cases: inhibition of tumour cell growth, NCI panel, 48 h
A549 NSCLC = system: A549 NSCLC
CCRF-CEM leukemia = system: CCRF-CEM leukemia
DU-145 prostate = system: DU-145 prostate
HT29 colon = system: HT29 colon
LOX IMVI melanoma = system: LOX IMVI melanoma
MCF7 breast = system: MCF7 breast
NCI-H522 lung = system: NCI-H522 lung
OVCAR-4 ovarian = system: OVCAR-4 ovarian
PC-3 prostate = system: PC-3 prostate
RPMI-8226 leukemia = system: RPMI-8226 leukemia
SK-MEL-28 melanoma = system: SK-MEL-28 melanoma
SNB-75 CNS = system: SNB-75 CNS
HS 578T breast = system: HS 578T breast

Row | SMILES | TGI (A549 NSCLC) | TGI (CCRF-CEM leukemia) | TGI (DU-145 prostate) | TGI (HT29 colon) | TGI (LOX IMVI melanoma) | TGI (MCF7 breast) | TGI (NCI-H522 lung) | TGI (OVCAR-4 ovarian) | TGI (PC-3 prostate) | TGI (RPMI-8226 leukemia) | TGI (SK-MEL-28 melanoma) | TGI (SNB-75 CNS) | TGI (HS 578T breast) | GI50 (OVCAR-4 ovarian)
1 | Nc1cc(N2CCCC2)nc(=O)n1-c1ccccc1 | > 100 µM | > 100 µM | > 100 µM | > 100 µM | > 100 µM | > 100 µM | > 100 µM | > 100 µM | > 100 µM | > 100 µM | > 100 µM | > 100 µM |  | 
2 | O=C(CSc1nc2[nH]ncc2c(=O)[nH]1)c1ccc(Cl)cc1 | > 100 µM | > 100 µM |  | > 100 µM | > 100 µM | > 100 µM | > 100 µM | > 100 µM | > 100 µM | > 100 µM | > 100 µM | > 100 µM | > 100 µM | 
3 | c1cc2c(c(NC3=NCCO3)c1)CCC2 | > 100 µM | > 100 µM | > 100 µM | > 100 µM | > 100 µM | > 100 µM | > 100 µM | > 100 µM | > 100 µM | > 100 µM | > 100 µM |  | > 100 µM | 
4 | N#Cc1c(N)[nH]c(=S)c(C#N)c1-c1ccccc1 | > 100 µM | > 100 µM | > 100 µM | > 100 µM | > 100 µM | > 100 µM | > 100 µM |  | > 100 µM | > 100 µM | > 100 µM | > 100 µM | > 100 µM | 
5 | COc1ccc(/C(O)=C/c2nc3cccnc3nc2/C=C(\O)c2ccc(OC)cc2)cc1 | 39.6 µM | > 100 µM | > 100 µM | 79.3 µM | 44.5 µM | 50.1 µM |  | 18.3 µM | > 100 µM | > 100 µM | 69 µM |  | 43.7 µM | 
6 | CC(=O)Nc1ccc2[nH]c(-c3cccc(Cl)c3)cc(=O)c2c1 | > 100 µM | > 100 µM |  | 33.7 µM |  | > 100 µM | > 100 µM | > 100 µM | > 100 µM | > 100 µM | > 100 µM | > 100 µM | > 100 µM | > 100 µM
7 | CC(=O)NC1=C(NCCN(C)C)C(=O)c2ccccc2C1=O | 48.8 µM | > 50 µM |  | 38.6 µM | > 50 µM |  | 23.8 µM | 17.7 µM |  |  | > 50 µM | > 50 µM |  | 
8 | CO[C@@H]1C=C[C@@]23c4cc5c(cc4C(=O)O[C@H]2CN(C)[C@H]3C1)OCO5 | > 100 µM | > 100 µM |  | > 100 µM | > 100 µM |  | > 100 µM | > 100 µM |  | > 100 µM | > 100 µM | > 100 µM |  | 
9 | O=C(O)CCc1ccc2c(c1)C(=O)CC2 | > 100 µM | > 100 µM | > 100 µM | > 100 µM | > 100 µM | > 100 µM | > 100 µM | > 100 µM |  | > 100 µM | > 100 µM |  |  | 
10 | c1ccc([P+](Cc2ccccc2C[P+](c2ccccc2)(c2ccccc2)c2ccccc2)(c2ccccc2)c2ccccc2)cc1 | > 100 µM |  | > 100 µM | > 100 µM | > 100 µM | > 100 µM | > 100 µM |  | > 100 µM | > 100 µM | > 100 µM | > 100 µM | > 100 µM | 
11 | Oc1ccc(N=C2CCC(=C(c3ccccc3)c3ccc(Nc4ccc(O)cc4)cc3)CC2)cc1 | > 100 µM | > 100 µM | > 100 µM | > 100 µM | > 100 µM | > 100 µM | > 100 µM | > 100 µM | > 100 µM | > 100 µM | > 100 µM |  |  | 
12 | CC1(C)C(O)C[C@@H](O)[C@@]2(C)C1CC[C@]1(C)C2C[C@@H](O)[C@@H]2C([C@@]3(C)CC[C@@H](C(C)(C)O)O3)CCC21C (some centres not stated) | 37 µM | > 66.1 µM |  | 31.6 µM | 23.2 µM |  | 27.8 µM | 37.9 µM |  | 66.5 µM | 27.1 µM | 29.7 µM |  | 
13 | CC(=O)OC1CCCn2c1nc1c2C(=O)C(C)=C(N2CC2)C1=O (configuration not stated) | 2.77 µM | 59 µM |  | 0.645 µM | 1.01 µM |  | 0.636 µM | 2.35 µM |  | 14.2 µM | 1.14 µM | 0.808 µM |  | 
14 | CCOC(=O)[C@@]12C3C=CC(CC3)[C@]1(C(=O)c1ccccc1)C(=O)C(=O)N2c1ccccc1 (some centres not stated) | > 100 µM |  | > 100 µM | > 100 µM |  | > 100 µM | > 100 µM | > 100 µM | > 100 µM | > 100 µM | > 100 µM |  |  | 
15 | CCCCCCCCCCCCCCCCOCC(Cl)COP(=O)(O)OP(=O)(O)OCC1OC(n2cc(C)c(=O)[nH]c2=O)CC1O (configuration not stated) | > 100 µM | > 100 µM |  | > 100 µM | > 100 µM | > 100 µM | > 100 µM | > 100 µM | 62.9 µM | > 100 µM | > 100 µM | 71.8 µM | 86.4 µM | 
16 | CN(N)c1cc(=O)[nH]c(=O)[nH]1 | > 100 µM | > 100 µM | > 100 µM | > 100 µM | > 100 µM |  | > 100 µM | > 100 µM | > 100 µM | > 100 µM | > 100 µM |  | > 100 µM | 
17 | NCCN1C(=O)CN=C(c2ccc(Cl)cc2)c2cc(Cl)ccc21 | 32.2 µM | 64.2 µM | 34.8 µM | 36 µM | 32.4 µM |  | 37.3 µM | 32.1 µM | 30.1 µM | 36.4 µM | > 100 µM | 30.7 µM | 35.8 µM | 
18 | c1ccc(-n2nc3ccc4nonc4c3n2)cc1 | > 100 µM | > 100 µM | > 100 µM | > 100 µM | > 100 µM | > 100 µM |  | > 100 µM | > 100 µM | > 100 µM | > 100 µM | > 100 µM |  | 
19 | O=C(O)c1ccc(NC(NC(=O)C(C(F)(F)F)C(F)(F)F)(C(F)(F)F)C(F)(F)F)cc1 | > 100 µM | > 100 µM |  | > 100 µM | > 100 µM |  |  |  | > 100 µM | > 100 µM | > 100 µM | > 100 µM | > 100 µM | 
